The values below are quoted from earlier work in publication PMC12530853 (RSC Advances, 2025).

The test system of the data set is Candida albicans. The settings on record: lack of antifungal activity; cited from earlier work.

Take `O=C(NC[C@@H](c1ccccc1)n1ccnc1)c1ccc(-c2ccc(Cl)cc2)cc1` [VID400]: the “MIC against Candida albicans” value is over 128 µg/mL.
